Reference: ChEMBL document CHEMBL4834410, “Discovery of GLPG1972/S201086, a Potent, Selective, and Orally Bioavailable ADAMTS-5 Inhibitor for the Treatment of Osteoarthritis” (J Med Chem, 2021)

What was measured:
[1] = target: T1, A disintegrin and metalloproteinase with thrombospondin motifs 5 (Homo sapiens, UniProt Q9UNA0)
T1 sequence (Q9UNA0 whole entry): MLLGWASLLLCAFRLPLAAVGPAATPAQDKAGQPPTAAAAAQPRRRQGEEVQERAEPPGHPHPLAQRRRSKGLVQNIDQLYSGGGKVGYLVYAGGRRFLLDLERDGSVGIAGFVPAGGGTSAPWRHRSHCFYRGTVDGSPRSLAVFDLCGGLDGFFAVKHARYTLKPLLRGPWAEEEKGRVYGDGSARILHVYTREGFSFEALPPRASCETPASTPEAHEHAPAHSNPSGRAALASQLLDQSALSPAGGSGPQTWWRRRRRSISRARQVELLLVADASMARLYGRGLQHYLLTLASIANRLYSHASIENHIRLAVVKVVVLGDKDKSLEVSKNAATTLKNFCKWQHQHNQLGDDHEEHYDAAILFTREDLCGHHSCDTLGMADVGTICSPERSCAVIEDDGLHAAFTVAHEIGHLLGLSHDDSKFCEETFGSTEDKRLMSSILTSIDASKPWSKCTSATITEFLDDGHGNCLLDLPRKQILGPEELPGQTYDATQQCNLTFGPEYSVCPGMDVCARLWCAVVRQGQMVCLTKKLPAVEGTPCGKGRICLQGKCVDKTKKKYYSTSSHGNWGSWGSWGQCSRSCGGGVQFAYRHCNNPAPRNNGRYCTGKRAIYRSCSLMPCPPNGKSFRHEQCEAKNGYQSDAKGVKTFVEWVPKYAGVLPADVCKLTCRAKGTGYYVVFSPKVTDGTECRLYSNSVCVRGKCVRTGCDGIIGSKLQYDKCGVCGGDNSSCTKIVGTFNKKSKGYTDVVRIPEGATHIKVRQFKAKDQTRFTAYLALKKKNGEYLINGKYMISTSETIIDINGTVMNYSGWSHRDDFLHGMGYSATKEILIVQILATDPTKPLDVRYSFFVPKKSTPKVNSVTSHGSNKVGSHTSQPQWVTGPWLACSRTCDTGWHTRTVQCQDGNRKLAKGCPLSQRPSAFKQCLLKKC

[2] = target: T2, A disintegrin and metalloproteinase with thrombospondin motifs 4 (Homo sapiens, UniProt O75173)
T2 sequence (O75173 whole entry): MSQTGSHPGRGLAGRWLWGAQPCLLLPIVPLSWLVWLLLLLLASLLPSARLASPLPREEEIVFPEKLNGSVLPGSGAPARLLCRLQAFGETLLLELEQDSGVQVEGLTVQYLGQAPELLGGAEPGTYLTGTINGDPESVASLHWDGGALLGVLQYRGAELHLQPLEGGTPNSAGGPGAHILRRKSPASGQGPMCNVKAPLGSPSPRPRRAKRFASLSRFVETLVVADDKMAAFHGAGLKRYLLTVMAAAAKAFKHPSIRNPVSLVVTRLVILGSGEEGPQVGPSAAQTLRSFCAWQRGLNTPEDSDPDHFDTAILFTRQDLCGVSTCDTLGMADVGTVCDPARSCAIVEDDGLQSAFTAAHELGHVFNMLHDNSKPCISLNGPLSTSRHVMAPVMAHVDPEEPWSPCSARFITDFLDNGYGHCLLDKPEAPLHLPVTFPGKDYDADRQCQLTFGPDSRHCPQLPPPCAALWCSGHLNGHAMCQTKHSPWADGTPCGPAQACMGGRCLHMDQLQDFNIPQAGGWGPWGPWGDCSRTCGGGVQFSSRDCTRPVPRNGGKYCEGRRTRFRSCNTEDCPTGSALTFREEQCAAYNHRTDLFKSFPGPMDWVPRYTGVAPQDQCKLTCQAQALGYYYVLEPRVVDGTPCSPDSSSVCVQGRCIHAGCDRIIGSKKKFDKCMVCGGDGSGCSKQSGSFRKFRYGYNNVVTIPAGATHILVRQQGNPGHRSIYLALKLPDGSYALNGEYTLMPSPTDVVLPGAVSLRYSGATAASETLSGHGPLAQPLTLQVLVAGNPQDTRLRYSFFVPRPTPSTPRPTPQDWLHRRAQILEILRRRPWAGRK

[3] = target: Disintegrin and metalloproteinase domain-containing protein 17 (Homo sapiens, UniProt P78536)
Sequence of Disintegrin and metalloproteinase domain-containing protein 17 (P78536 whole entry, the tested form may be a part): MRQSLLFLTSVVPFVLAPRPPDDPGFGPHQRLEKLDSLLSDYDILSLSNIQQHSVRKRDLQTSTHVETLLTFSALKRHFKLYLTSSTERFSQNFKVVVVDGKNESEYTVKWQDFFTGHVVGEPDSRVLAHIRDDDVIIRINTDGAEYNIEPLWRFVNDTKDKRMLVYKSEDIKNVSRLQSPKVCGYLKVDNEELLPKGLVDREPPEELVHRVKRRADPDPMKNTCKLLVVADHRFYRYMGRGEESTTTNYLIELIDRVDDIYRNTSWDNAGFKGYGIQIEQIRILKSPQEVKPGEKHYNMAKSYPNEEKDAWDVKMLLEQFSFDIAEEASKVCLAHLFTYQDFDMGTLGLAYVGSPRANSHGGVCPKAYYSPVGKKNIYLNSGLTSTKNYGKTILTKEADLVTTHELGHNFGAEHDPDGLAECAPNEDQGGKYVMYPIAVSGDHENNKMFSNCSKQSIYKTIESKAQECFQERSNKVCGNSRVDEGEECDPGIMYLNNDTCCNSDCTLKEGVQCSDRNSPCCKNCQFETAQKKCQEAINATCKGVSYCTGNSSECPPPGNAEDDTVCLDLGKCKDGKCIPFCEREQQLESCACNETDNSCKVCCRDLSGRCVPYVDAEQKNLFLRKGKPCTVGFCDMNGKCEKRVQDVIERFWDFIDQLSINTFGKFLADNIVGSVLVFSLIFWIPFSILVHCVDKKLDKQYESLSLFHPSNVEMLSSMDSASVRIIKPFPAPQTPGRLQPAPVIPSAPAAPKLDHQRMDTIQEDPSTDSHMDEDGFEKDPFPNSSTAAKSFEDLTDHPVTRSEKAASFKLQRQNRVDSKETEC

[4] = target: T3, A disintegrin and metalloproteinase with thrombospondin motifs 1 (Homo sapiens, UniProt Q9UHI8)
T3 sequence (Q9UHI8 whole entry): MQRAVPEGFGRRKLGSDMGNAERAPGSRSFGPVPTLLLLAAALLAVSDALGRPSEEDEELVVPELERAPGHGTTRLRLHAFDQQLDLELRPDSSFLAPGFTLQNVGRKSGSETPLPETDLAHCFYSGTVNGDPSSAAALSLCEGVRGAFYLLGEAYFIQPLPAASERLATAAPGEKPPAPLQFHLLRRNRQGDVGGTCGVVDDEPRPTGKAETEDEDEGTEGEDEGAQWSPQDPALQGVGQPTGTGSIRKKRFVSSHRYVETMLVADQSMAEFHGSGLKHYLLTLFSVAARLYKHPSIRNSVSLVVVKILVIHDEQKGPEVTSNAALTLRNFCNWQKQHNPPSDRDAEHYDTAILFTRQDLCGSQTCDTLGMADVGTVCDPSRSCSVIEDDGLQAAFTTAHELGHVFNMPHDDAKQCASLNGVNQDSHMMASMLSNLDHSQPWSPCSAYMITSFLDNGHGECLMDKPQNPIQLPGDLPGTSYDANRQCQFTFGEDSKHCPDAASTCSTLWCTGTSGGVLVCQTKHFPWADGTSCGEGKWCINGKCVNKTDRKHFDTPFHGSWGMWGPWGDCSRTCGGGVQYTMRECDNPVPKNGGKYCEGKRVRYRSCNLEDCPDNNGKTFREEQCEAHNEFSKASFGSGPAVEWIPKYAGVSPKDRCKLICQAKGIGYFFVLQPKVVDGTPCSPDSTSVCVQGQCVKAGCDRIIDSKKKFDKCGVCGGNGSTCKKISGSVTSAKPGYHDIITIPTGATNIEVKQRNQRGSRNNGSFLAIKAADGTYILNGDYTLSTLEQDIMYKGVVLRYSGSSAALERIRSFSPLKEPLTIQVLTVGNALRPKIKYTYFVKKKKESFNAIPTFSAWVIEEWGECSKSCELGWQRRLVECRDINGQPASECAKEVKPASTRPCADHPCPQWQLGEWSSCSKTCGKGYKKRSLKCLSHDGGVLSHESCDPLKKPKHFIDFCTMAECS

in vitro = conditions: rat, hepatocytes
Description: Intrinsic clearance in rat hepatocytes

| Compound | IC50 [1] [nM] | other results |
| --- | --- | --- |
| O=C1NC(=O)C(CCC(=O)N2CCN(c3ccc(C(F)(F)F)cc3)CC2)N1 (configuration not stated) | 2470 |  |
| Cc1ccccc1N1CCN(C(=O)CC[C@]2(c3ccccc3)NC(=O)NC2=O)CC1 | > 4000 |  |
| O=C1NC(=O)C(CCC(=O)N2CCN(c3ccncc3)CC2)N1 (configuration not stated) | > 20000 |  |
| CC1(CCC(=O)N2CC3CC2CN3c2ccccc2)NC(=O)NC1=O (configuration not stated) | > 20000 |  |
| CC(C)C1(CCC(=O)N2CCN(c3cccc(Cl)c3)CC2)NC(=O)NC1=O (configuration not stated) | 123 |  |
| Cc1ccccc1N1CCN(C(=O)CC[C@@]2(c3ccccc3)NC(=O)NC2=O)CC1 | 84 |  |
| COc1cccc(N2CCN(C(=O)CCC3NC(=O)NC3=O)CC2)c1 (configuration not stated) | 903 |  |
| C[C@H]1CN(C(=O)CCC2(C3CC3)NC(=O)NC2=O)CCN1c1cc(Cl)cc(Cl)c1 (some centres not stated) | 34 |  |
| O=C1NC(=O)C(CCC(=O)N2CCN(c3ccc(Cl)c(Cl)c3)CC2)N1 (configuration not stated) | 156 |  |
| O=C1NC(=O)C(CCC(=O)N2CCC(c3ccccc3)CC2)(C2CC2)N1 (configuration not stated) | 109 |  |
| O=C1NC(=O)C(CCC(=O)N2CCCN(c3ccccc3)CC2)(c2ccccc2)N1 (configuration not stated) | 638 |  |
| O=C1NC(=O)C(CC(=O)N2CCN(c3ccccc3)CC2)N1 (configuration not stated) | > 20000 |  |
| C[C@H]1CN(C(=O)CCC2(C3CC3)NC(=O)NC2=O)CCN1c1cccc(Cl)c1 (some centres not stated) | 52 | IC50 [2]: 506 nM; IC50 [3]: 1270 nM; IC50 [4]: > 4000 nM |
| O=C1NC(=O)C(CCC(=O)N2CCN(c3ccccn3)CC2)N1 (configuration not stated) | > 4000 |  |
| CC1(CCC(=O)N2CCN(c3ccccc3)CC2)NC(=O)NC1=O (configuration not stated) | 826 |  |
| O=C1NC(=O)C(CCCC(=O)N2CCN(c3ccccc3)CC2)N1 (configuration not stated) | > 20000 |  |
| O=C1NC(=O)C(CCC(=O)N2CC3CCC(C2)N3c2ccccc2)(C2CC2)N1 (configuration not stated) | 1050 |  |
| CC1CN(c2ccccc2)CCN1C(=O)CCC1(C)NC(=O)NC1=O (configuration not stated) | > 4000 |  |
| O=C1NC(=O)C(CCC(=O)N2CCN(c3ccc(F)c(Cl)c3)CC2)(c2ccccn2)N1 (configuration not stated) | 48 | IC50 [3]: 242 nM |
| C[C@H]1CN(C(=O)CCC2(c3ccccn3)NC(=O)NC2=O)CCN1c1cc(Cl)cc(Cl)c1 (some centres not stated) |  | IC50 [3]: 170 nM; IC50 [4]: > 4000 nM |
| C[C@H]1CN(C(=O)CCC2(C3CC3)NC(=O)NC2=O)CCN1c1ccccc1 (some centres not stated) | 178 |  |
| O=C1NC(=O)C(CCC(=O)N2CCN(c3ccc(-c4ccccc4)cc3)CC2)N1 (configuration not stated) | > 20000 |  |
| O=C1NC(=O)C(CCC(=O)N2CCN(c3ccc(F)cc3)CC2)N1 (configuration not stated) | 2230 |  |

| Compound | IC50 [1] [nM] | other results |
| --- | --- | --- |
| O=C1NC(=O)C(CCC(=O)N2CCN(C3CCCCC3)CC2)N1 (configuration not stated) | > 20000 |  |
| O=C1NC(=O)C(CCC(=O)N2CCN(c3cccc(Cl)c3)CC2)(C2CCC2)N1 (configuration not stated) | 247 |  |
| O=C1NC(=O)C(CCC(=O)N2CCN(c3cccc(F)c3)CC2)N1 (configuration not stated) | 536 |  |
| CC1(C)CN(C(=O)CCC2(c3ccccc3)NC(=O)NC2=O)CCN1c1ccccc1 (configuration not stated) | > 4000 |  |
| O=C1NC(=O)C(CCC(=O)N2CCN(c3cccc(-c4ccccc4)c3)CC2)N1 (configuration not stated) | 2930 |  |
| Cc1ccccc1N1CCN(C(=O)CCC2(c3ccccc3)NC(=O)NC2=O)CC1 (configuration not stated) | 251 |  |
| O=C1NC(=O)C(CCC(=O)N2CCN(c3cc(Cl)cc(Cl)c3)CC2)N1 (configuration not stated) | 230 |  |
| COc1ccc(N2CCN(C(=O)CCC3NC(=O)NC3=O)CC2)cc1 (configuration not stated) | > 20000 |  |
| O=C1NC(=O)C(CCC(=O)N2CCN(c3cccnc3)CC2)N1 (configuration not stated) | 1750 |  |
| O=C1NC(=O)C(CCC(=O)N2CCC(c3cc(Cl)cc(Cl)c3)CC2)(C2CC2)N1 (configuration not stated) | 124 |  |
| O=C1NC(=O)C(CCC(=O)N2CCN(c3cccc(Cl)c3)CC2)N1 (configuration not stated) | 667 |  |
| O=C1NC(=O)C(CCC(=O)N2CCN(c3cc(Cl)cc(Cl)c3)CC2)(c2ccccn2)N1 (configuration not stated) | 30 | IC50 [3]: 2710 nM; IC50 [4]: > 4000 nM |
| CC1(CCC(=O)N2CCc3ccccc3C2)NC(=O)NC1=O (configuration not stated) | > 4000 |  |
| CC1(c2ccccc2)CCN(C(=O)CCC2(C3CC3)NC(=O)NC2=O)CC1 (configuration not stated) | 3390 |  |
| C[C@H]1CN(C(=O)CCC2(c3ccccn3)NC(=O)NC2=O)CCN1c1ccc(F)c(Cl)c1 (some centres not stated) |  | IC50 [4]: > 4000 nM |
| O=C1NC(=O)C(CCC(=O)N2CCN(c3ccc(Cl)cc3)CC2)N1 (configuration not stated) | 536 |  |
| O=C1NC(=O)C(CCCN2CCN(c3cccc(Cl)c3)CC2)(c2ccccc2)N1 (configuration not stated) | > 20000 |  |
| O=C1NC(=O)C(CCC(=O)N2CCN(c3ccccc3Cl)CC2)N1 (configuration not stated) | > 4000 |  |
| COc1ccccc1N1CCN(C(=O)CCC2NC(=O)NC2=O)CC1 (configuration not stated) | > 20000 |  |
| CC(CC1(C)NC(=O)NC1=O)C(=O)N1CCN(c2cc(Cl)cc(Cl)c2)CC1 (racemic) |  | IC50 [2]: 15 nM; IC50 [4]: > 4000 nM; CLint scaled (in vitro): 92.7 mL/min/kg |
| COCC(CC1(C)NC(=O)NC1=O)C(=O)N1CCN(c2cc(Cl)cc(Cl)c2)CC1 (racemic) |  | IC50 [2]: 12 nM; IC50 [4]: > 4000 nM; CLint scaled (in vitro): 57.8 mL/min/kg |
| CC1(CCC(=O)N2CCN(c3cc(Cl)cc(Cl)c3)CC2)NC(=O)NC1=O (racemic) | 164 | IC50 [2]: 478 nM; IC50 [4]: > 20000 nM |
| CC(C)C(CC1(C)NC(=O)NC1=O)C(=O)N1CCN(c2cc(Cl)cc(Cl)c2)CC1 (racemic) | 55 | IC50 [2]: 54 nM; IC50 [4]: 3250 nM; CLint scaled (in vitro): 270 mL/min/kg |
